Assay results: paper PMC12892976, “Alkylation-based optimization of antifungal FPPS inhibitors yields a potent, broad-spectrum lipophilic zoledronate derivative” (mBio, 2025)
Converted amounts (≈) assume the structure as drawn. Read-outs that look alike come from different tables or passages of the source.

How the values were obtained:
Saccharomyces cerevisiae [1] = assay: MIC/MFC broth microdilution (CLSI); format: cell-based; conditions: Saccharomyces cerevisiae S288c
Experimental: (§1) Antifungal susceptibility was determined by broth microdilution according to the CLSI guidelines described in M27-Ed4 ([16]). […] MFC was determined by back-plating drug-treated cultures from MIC broths onto SDA plates. The MFC was defined as the lowest concentration from which no colonies could be cultured.

Candida albicans [2] = assay: MIC/MFC broth microdilution (CLSI); format: cell-based; conditions: Candida albicans SC5314
Experimental: as §1

[3] = tested on: Cryptococcus deuterogattii; assay: checkerboard drug interaction (FICI, MICc);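 on all read-outs here: simplified diagonal checkerboard screen pairing antifungal drugs with FPPS inhibitors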; format: cell-based; conditions: C. deuterogattii; for INH FD (MIC-MICc fold decrease): fold decrease of inhibitor MIC
Experimental: (§2) Drug interactions between antifungals and FPPS inhibitors were investigated using a simplified checkerboard diagonal screening method ([45]). […] FICIs were determined according to the Loewe additivity model ([17]).

Cryptococcus neoformans [4] = assay: checkerboard drug interaction (FICI, MICc);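 on all read-outs here: antifungal plus FPPS inhibitor pairs tested against Cryptococcus neoformans by simplified diagonal checkerboard screening, FICI computed under the Loewe additivity model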; format: cell-based; conditions: C. neoformans; for INH FD (MIC-MICc fold decrease): fold decrease of inhibitor MIC
Experimental: as §2

Saccharomyces cerevisiae [5] = assay: checkerboard drug interaction (FICI, MICc); format: cell-based; set-up: INH MICc / INH MICc (ITR:INH) / INH MICc (KET:INH) / INH MICc (FLC:INH): unit not given beside the values;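 further: simplified diagonal checkerboard screen pairing antifungals with FPPS inhibitors, FICI calculated under the Loewe additivity model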
Candida glabrata [6] = assay: checkerboard drug interaction (FICI, MICc);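 on all read-outs here: simplified diagonal checkerboard screen pairing antifungals with FPPS inhibitors, FICI calculated under the Loewe additivity model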; format: cell-based; conditions: C. glabrata; for INH FD (MIC-MICc fold decrease): fold decrease of inhibitor MIC
Experimental: as §2

Candida albicans [7] = assay: checkerboard drug interaction (FICI, MICc);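 on all read-outs here: antifungal plus FPPS inhibitor combinations on Candida albicans tested by a simplified diagonal checkerboard screen, with FICI calculated under the Loewe additivity model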; format: cell-based; conditions: C. albicans; for INH FD (MIC-MICc fold decrease): fold decrease of inhibitor MIC
Experimental: as §2

Aspergillus flavus [8] = assay: checkerboard drug interaction (FICI, MICc);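 further: simplified diagonal checkerboard screen pairing azole antifungals with FPPS inhibitors, FICI calculated under the Loewe additivity model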; format: cell-based; set-up: INH MICc (KET:INH) / INH MICc (FLC:INH): unit not given beside the values; conditions: A. flavus
Aspergillus fumigatus [9] = assay: checkerboard drug interaction (FICI, MICc); format: cell-based;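 further: simplified diagonal checkerboard screen pairing antifungals with FPPS inhibitors against Aspergillus fumigatus, with FICI calculated under the Loewe additivity model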
Experimental: as §2

Trichophyton rubrum [10] = assay: checkerboard drug interaction (FICI, MICc);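 further: simplified diagonal checkerboard screen pairing azole antifungals with FPPS inhibitors, FICI calculated under the Loewe additivity model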; format: cell-based; conditions: T. rubrum
Experimental: as §2

HEK-293T cells = assay: MTT reduction cytotoxicity assay; format: cell-based; conditions: Homo sapiens, HEK-293T, 72 h, HEK-293T, MTT, 72 h; read-out: HEK IC50
eight fungal species [11] = assay: MIC/MFC summary across the eight fungal species of Table 1; format: cell-based
Experimental: The antifungal activity of these compounds was evaluated according to CLSI guidelines ([16]).

eight fungal species [12] = assay: checkerboard interaction with azoles, summary across the eight species; format: cell-based; conditions: geometric mean MIC in combination with azoles
Excerpt: Synergy between lipophilic FPPS inhibitors and azole antifungals was investigated by determining the fractional inhibitory concentration index (FICI) (Fig. 2; Table S1 Fig. S1) ([17]). […]. Derivatives PLA9 and 11, and PDA9, 11, and 12 antagonized azoles in C. albicans, C. neoformans, and C. deuterogattii, yet were largely synergistic in C. glabrata and S. cerevisiae. […].

[13] = tested on: Cryptococcus deuterogattii; assay: MIC/MFC broth microdilution (CLSI); conditions: Cryptococcus deuterogattii;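 further: broth microdilution per CLSI M27-Ed4. MFC is the lowest concentration yielding no colonies when MIC broths are subcultured onto SDA plates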
Experimental: as §1

Cryptococcus neoformans [14] = assay: MIC/MFC broth microdilution (CLSI); conditions: Cryptococcus neoformans;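 further: susceptibility testing followed the CLSI M27-Ed4 broth microdilution document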
Experimental: as §1

Candida glabrata [15] = assay: MIC/MFC broth microdilution (CLSI); conditions: Nakaseomyces glabratus, CBS138;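 further: broth microdilution following CLSI M27-Ed4, MFC taken as the lowest drug level yielding no growth once MIC wells were subcultured on SDA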
Experimental: as §1

Aspergillus flavus [16] = assay: MIC/MFC broth microdilution (CLSI); conditions: ATCC204304
Experimental: as §1

Aspergillus fumigatus [17] = assay: MIC/MFC broth microdilution (CLSI); conditions: ATCC204305
Experimental: as §1

Trichophyton rubrum [18] = assay: MIC/MFC broth microdilution (CLSI); conditions: Trichophyton rubrum
Experimental: as §1

[19] = FLC:INH combination, MIC of the inhibitor in combination with FLC
[20] = FLC:INH combination, fold decrease of FLC MIC
[21] = ITR:INH combination, MIC of the inhibitor in combination with ITR
[22] = ITR:INH combination, fold decrease of ITR MIC
[23] = KET:INH combination, MIC of the inhibitor in combination with KET
[24] = KET:INH combination, fold decrease of KET MIC
[25] = Fractional Inhibitory Concentration Index, fluconazole + inhibitor
[26] = Fractional Inhibitory Concentration Index, itraconazole + inhibitor
[27] = Fractional Inhibitory Concentration Index, ketoconazole + inhibitor
[28] = MIC of the inhibitor in combination with fluconazole
[29] = MIC of the inhibitor in combination with itraconazole
[30] = MIC of the inhibitor in combination with ketoconazole
[31] = MIC-MICc fold decrease of fluconazole, negative = increase
[32] = MIC-MICc fold decrease of itraconazole, negative = increase
[33] = MIC-MICc fold decrease of ketoconazole, negative = increase
[34] = MIC-MICc fold decrease of the inhibitor, with fluconazole
[35] = MIC-MICc fold decrease of the inhibitor, with itraconazole
[36] = MIC-MICc fold decrease of the inhibitor, with ketoconazole

## CCCCCCCCCCN1CCC[C@H]1C(=O)N[C@H](CC(=O)OC)C(=O)OC [dmPDA10]
Saccharomyces cerevisiae [1]
  MFC: 16 µg/mL (≈ 40.1 µM)
  MIC: 16 µg/mL (≈ 40.1 µM)
Candida albicans [2]
  MFC: 32 µg/mL (≈ 80.3 µM)
  MIC: 16 µg/mL (≈ 40.1 µM)
[3]; FLC:INH combination
  FICI: 1.25
  INH FD (MIC-MICc fold decrease): 1
[3]; [19]
  INH MICc: 16
[3]; [20]
  FLC FD (MIC-MICc fold decrease): 4
[3]; ITR:INH combination
  FICI: 1.5
  INH FD (MIC-MICc fold decrease): 1
[3]; [21]
  INH MICc: 16
[3]; [22]
  ITR FD (MIC-MICc fold decrease): 2
[3]; KET:INH combination
  FICI: 0.53
  INH FD (MIC-MICc fold decrease): 2
[3]; [23]
  INH MICc: 8
[3]; [24]
  KET FD (MIC-MICc fold decrease): 32
Cryptococcus neoformans [4]; FLC:INH combination
  FICI: 0.75
  INH FD (MIC-MICc fold decrease): 2
Cryptococcus neoformans [4]; [19]
  INH MICc: 8
Cryptococcus neoformans [4]; [20]
  FLC FD (MIC-MICc fold decrease): 4
Cryptococcus neoformans [4]; ITR:INH combination
  FICI: 0.75
  INH FD (MIC-MICc fold decrease): 2
Cryptococcus neoformans [4]; [21]
  INH MICc: 8
Cryptococcus neoformans [4]; [22]
  ITR FD (MIC-MICc fold decrease): 4
Cryptococcus neoformans [4]; KET:INH combination
  FICI: 0.75
  INH FD (MIC-MICc fold decrease): 2
Cryptococcus neoformans [4]; [23]
  INH MICc: 8
Cryptococcus neoformans [4]; [24]
  KET FD (MIC-MICc fold decrease): 4
Saccharomyces cerevisiae [5]; [25]
  FICI (FLC:INH): ≥4
Saccharomyces cerevisiae [5]; [26]
  FICI (ITR:INH): 3
Saccharomyces cerevisiae [5]; [27]
  FICI (KET:INH): 1.13
Saccharomyces cerevisiae [5]; [28]
  INH MICc (FLC:INH): 32
Saccharomyces cerevisiae [5]; [29]
  INH MICc (ITR:INH): 16
Saccharomyces cerevisiae [5]; [30]
  INH MICc (KET:INH): 16
Saccharomyces cerevisiae [5]; [31]
  FLC FD (FLC:INH): -2
Saccharomyces cerevisiae [5]; [32]
  ITR FD (ITR:INH): -2
Saccharomyces cerevisiae [5]; [33]
  KET FD (KET:INH): 8
Saccharomyces cerevisiae [5]; [34]
  INH FD (FLC:INH): -2
Saccharomyces cerevisiae [5]; [35]
  INH FD (ITR:INH): 1
Saccharomyces cerevisiae [5]; [36]
  INH FD (KET:INH): 1
Candida glabrata [6]; FLC:INH combination
  FICI: ≥4
  INH FD (MIC-MICc fold decrease): 1
Candida glabrata [6]; [19]
  INH MICc: 16
Candida glabrata [6]; [20]
  FLC FD (MIC-MICc fold decrease): 1
Candida glabrata [6]; ITR:INH combination
  FICI: 3
  INH FD (MIC-MICc fold decrease): 2
Candida glabrata [6]; [21]
  INH MICc: 8
Candida glabrata [6]; [22]
  ITR FD (MIC-MICc fold decrease): 1
Candida glabrata [6]; KET:INH combination
  FICI: ≥4
  INH FD (MIC-MICc fold decrease): 1
Candida glabrata [6]; [23]
  INH MICc: 16
Candida glabrata [6]; [24]
  KET FD (MIC-MICc fold decrease): -2
Candida albicans [7]; FLC:INH combination
  FICI: 1.5
  INH FD (MIC-MICc fold decrease): 2
Candida albicans [7]; [19]
  INH MICc: 8
Candida albicans [7]; [20]
  FLC FD (MIC-MICc fold decrease): 1
Candida albicans [7]; ITR:INH combination
  FICI: 0.75
  INH FD (MIC-MICc fold decrease): 4
Candida albicans [7]; [21]
  INH MICc: 4
Candida albicans [7]; [22]
  ITR FD (MIC-MICc fold decrease): 2
Candida albicans [7]; KET:INH combination
  FICI: 0.75
  INH FD (MIC-MICc fold decrease): 4
Candida albicans [7]; [23]
  INH MICc: 4
Candida albicans [7]; [24]
  KET FD (MIC-MICc fold decrease): 2
Aspergillus flavus [8]; [25]
  FICI (FLC:INH): 0.75
Aspergillus flavus [8]; [26]
  FICI (ITR:INH): 1.5
Aspergillus flavus [8]; [27]
  FICI (KET:INH): 0.63
Aspergillus flavus [8]; [28]
  INH MICc (FLC:INH): 32
Aspergillus flavus [8]; [29]
  INH MICc (ITR:INH): 32
Aspergillus flavus [8]; [30]
  INH MICc (KET:INH): 8
Aspergillus flavus [8]; [31]
  FLC FD (FLC:INH): 4
Aspergillus flavus [8]; [32]
  ITR FD (ITR:INH): 1
Aspergillus flavus [8]; [33]
  KET FD (KET:INH): 2
Aspergillus flavus [8]; [34]
  INH FD (FLC:INH): 2
Aspergillus flavus [8]; [35]
  INH FD (ITR:INH): 2
Aspergillus flavus [8]; [36]
  INH FD (KET:INH): 8
Aspergillus fumigatus [9]; [25]
  FICI (FLC:INH): 2.13
Aspergillus fumigatus [9]; [26]
  FICI (ITR:INH): 0.63
Aspergillus fumigatus [9]; [27]
  FICI (KET:INH): 2.25
Aspergillus fumigatus [9]; [28]
  INH MICc (FLC:INH): 32
Aspergillus fumigatus [9]; [29]
  INH MICc (ITR:INH): 2
Aspergillus fumigatus [9]; [30]
  INH MICc (KET:INH): 32
Aspergillus fumigatus [9]; [31]
  FLC FD (FLC:INH): 8
Aspergillus fumigatus [9]; [32]
  ITR FD (ITR:INH): 2
Aspergillus fumigatus [9]; [33]
  KET FD (KET:INH): 4
Aspergillus fumigatus [9]; [34]
  INH FD (FLC:INH): -2
Aspergillus fumigatus [9]; [35]
  INH FD (ITR:INH): 8
Aspergillus fumigatus [9]; [36]
  INH FD (KET:INH): -2
Trichophyton rubrum [10]; [25]
  FICI (FLC:INH): ≥4
Trichophyton rubrum [10]; [26]
  FICI (ITR:INH): ≥4
Trichophyton rubrum [10]; [27]
  FICI (KET:INH): ≥4
Trichophyton rubrum [10]; [28]
  INH MICc (FLC:INH): 64
Trichophyton rubrum [10]; [29]
  INH MICc (ITR:INH): 64
Trichophyton rubrum [10]; [30]
  INH MICc (KET:INH): 64
Trichophyton rubrum [10]; [31]
  FLC FD (FLC:INH): 2
Trichophyton rubrum [10]; [32]
  ITR FD (ITR:INH): 4
Trichophyton rubrum [10]; [33]
  KET FD (KET:INH): 2
Trichophyton rubrum [10]; [34]
  INH FD (FLC:INH): < -4
Trichophyton rubrum [10]; [35]
  INH FD (ITR:INH): < -4
Trichophyton rubrum [10]; [36]
  INH FD (KET:INH): < -4
HEK-293T cells
  IC50: 1.84 µg/mL (≈ 4.62 µM)
Eight fungal species [11]; across eight species
  Geometric mean MFC: 45.3 µg/mL
Eight fungal species [11]; across eight species, read-out: Geometric mean MFC
  MFC: 45.3 µg/mL (≈ 114 µM)
Eight fungal species [11]; geometric mean across eight species, read-out: GM fungal MIC
  MIC: 20.7 µg/mL (≈ 51.9 µM)
Eight fungal species [11]; read-out: Geometric mean MIC
  MIC: 20.7 µg/mL (≈ 51.9 µM)
Eight fungal species [12]
  GM fungal MICc: 14.7
[13]
  MFC: 64 µg/mL (≈ 161 µM)
  MIC: 16 µg/mL (≈ 40.1 µM)
Cryptococcus neoformans [14]
  MFC: 32 µg/mL (≈ 80.3 µM)
  MIC: 16 µg/mL (≈ 40.1 µM)
Candida glabrata [15]
  MFC: 32 µg/mL (≈ 80.3 µM)
  MIC: 32 µg/mL (≈ 80.3 µM)
Aspergillus flavus [16]
  MFC: 64 µg/mL (≈ 161 µM)
  MIC: 64 µg/mL (≈ 161 µM)
Aspergillus fumigatus [17]
  MFC: 32 µg/mL (≈ 80.3 µM)
  MIC: 32 µg/mL (≈ 80.3 µM)
Trichophyton rubrum [18]
  MFC: > 128 µg/mL
  MIC: 8 µg/mL (≈ 20.1 µM)
